Source: the NIST ThermoML archive (doi:10.1016/j.jct.2007.04.005)
Numbers after ± are expanded uncertainties.

Assay: xn = mol fraction of the nth substance listed
Details: 298.15 K, Liquid

CCCCCCCCC [nonane] + C1CCCCC1
Details | mass density [kg/m3]
100 kPa, x2 = 0 | 713.6 ± 0.7
100 kPa, x2 = 0.09303 | 716.6 ± 0.7
100 kPa, x2 = 0.2009 | 720.5 ± 0.7
100 kPa, x2 = 0.3051 | 724.8 ± 0.6
100 kPa, x2 = 0.417 | 729.9 ± 0.6
100 kPa, x2 = 0.512 | 734.6 ± 0.6
100 kPa, x2 = 0.5996 | 739.8 ± 0.6
100 kPa, x2 = 0.7052 | 746.6 ± 0.6
100 kPa, x2 = 0.7993 | 753.9 ± 0.6
100 kPa, x2 = 0.9039 | 763.1 ± 0.5
101 kPa, x2 = 0 | 713.86 ± 0.67
101 kPa, x2 = 0.1022 | 717.19 ± 0.65
101 kPa, x2 = 0.1548 | 719.05 ± 0.64
101 kPa, x2 = 0.2009 | 720.75 ± 0.64
101 kPa, x2 = 0.2591 | 723.01 ± 0.63
101 kPa, x2 = 0.3306 | 726.01 ± 0.61
101 kPa, x2 = 0.4003 | 729.17 ± 0.6
101 kPa, x2 = 0.4596 | 732.07 ± 0.59
101 kPa, x2 = 0.5321 | 735.92 ± 0.58
101 kPa, x2 = 0.612 | 740.61 ± 0.57
101 kPa, x2 = 0.6649 | 744.01 ± 0.56
101 kPa, x2 = 0.7224 | 748.02 ± 0.55
101 kPa, x2 = 0.8047 | 754.4 ± 0.53
101 kPa, x2 = 0.8686 | 759.98 ± 0.52
101 kPa, x2 = 0.9405 | 767.1 ± 0.5
2130 kPa, x2 = 0 | 715.2 ± 0.8
2130 kPa, x2 = 0.09303 | 718.2 ± 0.8
2130 kPa, x2 = 0.2009 | 722.2 ± 0.7
2130 kPa, x2 = 0.3051 | 726.5 ± 0.7
2130 kPa, x2 = 0.417 | 731.5 ± 0.7
2130 kPa, x2 = 0.512 | 736.2 ± 0.7
2130 kPa, x2 = 0.5996 | 741.4 ± 0.7
2130 kPa, x2 = 0.7052 | 748.2 ± 0.6
2130 kPa, x2 = 0.7993 | 755.6 ± 0.6
2130 kPa, x2 = 0.9039 | 764.8 ± 0.6
4150 kPa, x2 = 0 | 716.8 ± 0.9
4150 kPa, x2 = 0.09303 | 719.8 ± 0.8
4150 kPa, x2 = 0.2009 | 723.8 ± 0.8
4150 kPa, x2 = 0.3051 | 728.1 ± 0.8
4150 kPa, x2 = 0.417 | 733.1 ± 0.8
4150 kPa, x2 = 0.512 | 737.8 ± 0.8
4150 kPa, x2 = 0.5996 | 743.1 ± 0.7
4150 kPa, x2 = 0.7052 | 749.9 ± 0.7
4150 kPa, x2 = 0.7993 | 757.2 ± 0.7
4150 kPa, x2 = 0.9039 | 766.5 ± 0.7
6180 kPa, x2 = 0 | 718.4 ± 0.9
6180 kPa, x2 = 0.09303 | 721.4 ± 0.9
6180 kPa, x2 = 0.2009 | 725.4 ± 0.9
6180 kPa, x2 = 0.3051 | 729.7 ± 0.9
6180 kPa, x2 = 0.417 | 734.7 ± 0.9
6180 kPa, x2 = 0.512 | 739.5 ± 0.8
6180 kPa, x2 = 0.5996 | 744.7 ± 0.8
6180 kPa, x2 = 0.7052 | 751.5 ± 0.8
6180 kPa, x2 = 0.7993 | 758.8 ± 0.8
6180 kPa, x2 = 0.9039 | 768.1 ± 0.7
8210 kPa, x2 = 0 | 719.9 ± 1
8210 kPa, x2 = 0.09303 | 722.9 ± 1
8210 kPa, x2 = 0.2009 | 726.9 ± 1
8210 kPa, x2 = 0.3051 | 731.2 ± 1
8210 kPa, x2 = 0.417 | 736.3 ± 0.9
8210 kPa, x2 = 0.512 | 741 ± 0.9
8210 kPa, x2 = 0.5996 | 746.3 ± 0.9
8210 kPa, x2 = 0.7052 | 753.1 ± 0.9
8210 kPa, x2 = 0.7993 | 760.4 ± 0.8
8210 kPa, x2 = 0.9039 | 769.7 ± 0.8
10230 kPa, x2 = 0 | 721.4 ± 1.1
10230 kPa, x2 = 0.09303 | 724.4 ± 1.1
10230 kPa, x2 = 0.2009 | 728.5 ± 1.1
10230 kPa, x2 = 0.3051 | 732.8 ± 1
10230 kPa, x2 = 0.417 | 737.9 ± 1
10230 kPa, x2 = 0.512 | 742.5 ± 1
10230 kPa, x2 = 0.5996 | 747.9 ± 1
10230 kPa, x2 = 0.7052 | 754.7 ± 0.9
10230 kPa, x2 = 0.7993 | 762 ± 0.9
10230 kPa, x2 = 0.9039 | 771.3 ± 0.9
11250 kPa, x2 = 0 | 722.2 ± 1.2
11250 kPa, x2 = 0.09303 | 725.2 ± 1.1
11250 kPa, x2 = 0.2009 | 729.2 ± 1.1
11250 kPa, x2 = 0.3051 | 733.5 ± 1.1
11250 kPa, x2 = 0.417 | 738.6 ± 1.1
11250 kPa, x2 = 0.512 | 743.3 ± 1
11250 kPa, x2 = 0.5996 | 748.6 ± 1
11250 kPa, x2 = 0.7052 | 755.5 ± 1
11250 kPa, x2 = 0.7993 | 762.8 ± 0.9
11250 kPa, x2 = 0.9039 | 772.1 ± 0.9
12260 kPa, x2 = 0 | 722.9 ± 1.2
12260 kPa, x2 = 0.09303 | 725.9 ± 1.2
12260 kPa, x2 = 0.2009 | 730 ± 1.1
12260 kPa, x2 = 0.3051 | 734.3 ± 1.1
12260 kPa, x2 = 0.417 | 739.4 ± 1.1
12260 kPa, x2 = 0.512 | 744.1 ± 1.1
12260 kPa, x2 = 0.5996 | 749.4 ± 1
12260 kPa, x2 = 0.7052 | 756.2 ± 1
12260 kPa, x2 = 0.7993 | 763.5 ± 1
12260 kPa, x2 = 0.9039 | 772.9 ± 0.9
14290 kPa, x2 = 0 | 724.4 ± 1.3
14290 kPa, x2 = 0.09303 | 727.4 ± 1.3
14290 kPa, x2 = 0.2009 | 731.5 ± 1.2
14290 kPa, x2 = 0.3051 | 735.8 ± 1.2
14290 kPa, x2 = 0.417 | 740.9 ± 1.2
14290 kPa, x2 = 0.512 | 745.5 ± 1.1
14290 kPa, x2 = 0.5996 | 750.9 ± 1.1
14290 kPa, x2 = 0.7052 | 757.8 ± 1.1
14290 kPa, x2 = 0.7993 | 765.1 ± 1
14290 kPa, x2 = 0.9039 | 774.4 ± 1
16310 kPa, x2 = 0 | 725.8 ± 1.4
16310 kPa, x2 = 0.09303 | 728.8 ± 1.3
16310 kPa, x2 = 0.2009 | 732.9 ± 1.3
16310 kPa, x2 = 0.3051 | 737.2 ± 1.3
16310 kPa, x2 = 0.417 | 742.3 ± 1.2
16310 kPa, x2 = 0.512 | 747 ± 1.2
16310 kPa, x2 = 0.5996 | 752.3 ± 1.2
16310 kPa, x2 = 0.7052 | 759.2 ± 1.1
16310 kPa, x2 = 0.7993 | 766.5 ± 1.1
16310 kPa, x2 = 0.9039 | 775.9 ± 1.1
18340 kPa, x2 = 0 | 727.2 ± 1.4
18340 kPa, x2 = 0.09303 | 730.2 ± 1.4
18340 kPa, x2 = 0.2009 | 734.3 ± 1.4
18340 kPa, x2 = 0.3051 | 738.6 ± 1.3
18340 kPa, x2 = 0.417 | 743.7 ± 1.3
18340 kPa, x2 = 0.512 | 748.4 ± 1.3
18340 kPa, x2 = 0.5996 | 753.8 ± 1.3
